In patent publication US20210070748A1, “INHIBITORS OF BRUTONS TYROSINE KINASE” (Pharmacyclics LLC, priority 2015, published 2021):

What was measured:
Format in all cases: biochemical
EGFR = EGFR (Homo sapiens, UniProt P00533); experiment: Inhibition of a panel of kinases, in vitro HotSpot kinase assay: EGFR; details: Table 15, C compounds; 1 μM ATP
Protocol: (§1) The degree of inhibition of a panel of kinases is determined using the in vitro HotSpot kinase assay (purified enzymes, ^33P-ATP, an appropriate substrate and 1 μM ATP).

TEC = target: T1, TEC (Homo sapiens, UniProt P42680); experiment: Inhibition of a panel of kinases, in vitro HotSpot kinase assay: TEC; details: Table 15, C compounds; 1 μM ATP
T1 sequence (P42680 1-631): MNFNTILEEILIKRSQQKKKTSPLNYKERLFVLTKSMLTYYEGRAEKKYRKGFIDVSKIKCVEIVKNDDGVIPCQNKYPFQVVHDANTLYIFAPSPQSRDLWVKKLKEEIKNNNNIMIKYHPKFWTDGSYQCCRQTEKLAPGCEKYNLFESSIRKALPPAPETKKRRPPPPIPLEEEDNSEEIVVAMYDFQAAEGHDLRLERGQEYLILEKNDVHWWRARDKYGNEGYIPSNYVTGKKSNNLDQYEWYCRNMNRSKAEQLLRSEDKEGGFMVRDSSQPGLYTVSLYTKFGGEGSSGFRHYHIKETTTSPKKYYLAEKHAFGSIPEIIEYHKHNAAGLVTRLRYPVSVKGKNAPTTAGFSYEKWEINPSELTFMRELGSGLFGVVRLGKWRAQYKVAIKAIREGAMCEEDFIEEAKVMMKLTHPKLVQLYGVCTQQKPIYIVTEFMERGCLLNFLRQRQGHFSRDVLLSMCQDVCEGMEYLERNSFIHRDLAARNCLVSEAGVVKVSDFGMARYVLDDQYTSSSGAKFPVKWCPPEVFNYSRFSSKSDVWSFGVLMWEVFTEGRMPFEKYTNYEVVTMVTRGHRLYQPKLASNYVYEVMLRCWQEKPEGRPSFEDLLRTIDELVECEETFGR
Protocol: as §1

ITK = target: T2, ITK (Homo sapiens, UniProt Q08881); experiment: Inhibition of a panel of kinases, in vitro HotSpot kinase assay: ITK; details: Table 15, C compounds; 1 μM ATP
T2 sequence (Q08881 1-620): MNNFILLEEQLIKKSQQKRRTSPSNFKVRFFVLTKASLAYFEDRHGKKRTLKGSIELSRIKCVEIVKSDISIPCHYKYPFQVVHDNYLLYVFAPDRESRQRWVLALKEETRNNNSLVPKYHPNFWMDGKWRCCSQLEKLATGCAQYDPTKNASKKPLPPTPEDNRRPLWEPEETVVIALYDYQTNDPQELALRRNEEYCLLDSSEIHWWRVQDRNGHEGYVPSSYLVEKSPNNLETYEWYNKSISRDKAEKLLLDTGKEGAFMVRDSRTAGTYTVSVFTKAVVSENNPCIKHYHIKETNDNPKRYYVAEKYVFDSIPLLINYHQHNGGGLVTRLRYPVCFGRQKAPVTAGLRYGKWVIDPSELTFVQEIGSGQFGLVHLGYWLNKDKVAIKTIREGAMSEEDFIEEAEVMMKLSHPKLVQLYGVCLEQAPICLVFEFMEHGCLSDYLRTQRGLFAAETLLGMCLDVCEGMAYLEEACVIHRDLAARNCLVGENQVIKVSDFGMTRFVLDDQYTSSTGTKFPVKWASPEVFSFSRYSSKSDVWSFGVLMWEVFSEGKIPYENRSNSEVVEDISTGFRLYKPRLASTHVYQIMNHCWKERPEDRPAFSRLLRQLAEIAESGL
Protocol: as §1

BTK-WT = target: T3, BTK-WT (Homo sapiens, UniProt Q06187); experiment: Btk in vitro inhibitory activity (one of Method A TR-FRET, Method B electrophoretic mobility shift, Method C radiometric filter binding); details: Table 15, C compounds; read-out: IC50 BTK-WT
T3 construct: purified from insect cells as a full-length construct containing an N-terminal 6X-His tag; His6 (N); made in house; host or cells: insect cells (baculovirus Sf21 in Method B)

TXK = target: T4, TXK (Homo sapiens, UniProt P42681); experiment: Inhibition of a panel of kinases, in vitro HotSpot kinase assay: TXK; details: Table 15, C compounds; 1 μM ATP
T4 sequence (P42681 1-527): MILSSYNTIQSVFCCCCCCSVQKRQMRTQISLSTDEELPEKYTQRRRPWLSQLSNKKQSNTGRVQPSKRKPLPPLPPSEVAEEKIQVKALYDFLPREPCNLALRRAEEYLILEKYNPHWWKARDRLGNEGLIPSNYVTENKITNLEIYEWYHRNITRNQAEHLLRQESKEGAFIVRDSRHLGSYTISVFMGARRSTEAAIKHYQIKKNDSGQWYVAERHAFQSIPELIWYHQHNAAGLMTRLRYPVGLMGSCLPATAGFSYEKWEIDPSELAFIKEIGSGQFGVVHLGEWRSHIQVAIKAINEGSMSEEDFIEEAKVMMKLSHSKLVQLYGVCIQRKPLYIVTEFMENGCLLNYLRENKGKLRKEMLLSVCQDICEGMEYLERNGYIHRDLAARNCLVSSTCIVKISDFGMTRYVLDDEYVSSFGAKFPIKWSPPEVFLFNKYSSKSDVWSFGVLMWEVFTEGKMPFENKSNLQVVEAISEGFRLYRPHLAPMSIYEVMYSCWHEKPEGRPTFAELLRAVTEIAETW
Protocol: as §1

T3 sequence (Q06187 whole entry): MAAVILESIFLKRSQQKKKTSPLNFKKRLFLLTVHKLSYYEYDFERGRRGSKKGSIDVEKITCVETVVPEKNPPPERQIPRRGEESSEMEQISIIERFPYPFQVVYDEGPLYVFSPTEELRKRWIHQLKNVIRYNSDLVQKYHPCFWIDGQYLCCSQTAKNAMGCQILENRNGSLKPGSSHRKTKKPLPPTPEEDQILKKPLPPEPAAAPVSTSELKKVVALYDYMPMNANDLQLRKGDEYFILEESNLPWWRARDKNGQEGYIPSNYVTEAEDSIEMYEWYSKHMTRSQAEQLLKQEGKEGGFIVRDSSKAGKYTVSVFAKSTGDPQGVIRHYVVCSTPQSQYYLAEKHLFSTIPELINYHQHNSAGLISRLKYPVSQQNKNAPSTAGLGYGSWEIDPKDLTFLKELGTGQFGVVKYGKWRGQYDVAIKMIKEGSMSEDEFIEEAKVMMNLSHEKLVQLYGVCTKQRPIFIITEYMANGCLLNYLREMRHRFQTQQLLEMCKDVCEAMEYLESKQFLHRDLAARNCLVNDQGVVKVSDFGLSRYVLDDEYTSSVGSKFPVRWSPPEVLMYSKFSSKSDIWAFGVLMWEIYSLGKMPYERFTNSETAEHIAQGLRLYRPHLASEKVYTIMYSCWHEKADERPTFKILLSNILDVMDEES
Sequence of EGFR (P00533 25-1210): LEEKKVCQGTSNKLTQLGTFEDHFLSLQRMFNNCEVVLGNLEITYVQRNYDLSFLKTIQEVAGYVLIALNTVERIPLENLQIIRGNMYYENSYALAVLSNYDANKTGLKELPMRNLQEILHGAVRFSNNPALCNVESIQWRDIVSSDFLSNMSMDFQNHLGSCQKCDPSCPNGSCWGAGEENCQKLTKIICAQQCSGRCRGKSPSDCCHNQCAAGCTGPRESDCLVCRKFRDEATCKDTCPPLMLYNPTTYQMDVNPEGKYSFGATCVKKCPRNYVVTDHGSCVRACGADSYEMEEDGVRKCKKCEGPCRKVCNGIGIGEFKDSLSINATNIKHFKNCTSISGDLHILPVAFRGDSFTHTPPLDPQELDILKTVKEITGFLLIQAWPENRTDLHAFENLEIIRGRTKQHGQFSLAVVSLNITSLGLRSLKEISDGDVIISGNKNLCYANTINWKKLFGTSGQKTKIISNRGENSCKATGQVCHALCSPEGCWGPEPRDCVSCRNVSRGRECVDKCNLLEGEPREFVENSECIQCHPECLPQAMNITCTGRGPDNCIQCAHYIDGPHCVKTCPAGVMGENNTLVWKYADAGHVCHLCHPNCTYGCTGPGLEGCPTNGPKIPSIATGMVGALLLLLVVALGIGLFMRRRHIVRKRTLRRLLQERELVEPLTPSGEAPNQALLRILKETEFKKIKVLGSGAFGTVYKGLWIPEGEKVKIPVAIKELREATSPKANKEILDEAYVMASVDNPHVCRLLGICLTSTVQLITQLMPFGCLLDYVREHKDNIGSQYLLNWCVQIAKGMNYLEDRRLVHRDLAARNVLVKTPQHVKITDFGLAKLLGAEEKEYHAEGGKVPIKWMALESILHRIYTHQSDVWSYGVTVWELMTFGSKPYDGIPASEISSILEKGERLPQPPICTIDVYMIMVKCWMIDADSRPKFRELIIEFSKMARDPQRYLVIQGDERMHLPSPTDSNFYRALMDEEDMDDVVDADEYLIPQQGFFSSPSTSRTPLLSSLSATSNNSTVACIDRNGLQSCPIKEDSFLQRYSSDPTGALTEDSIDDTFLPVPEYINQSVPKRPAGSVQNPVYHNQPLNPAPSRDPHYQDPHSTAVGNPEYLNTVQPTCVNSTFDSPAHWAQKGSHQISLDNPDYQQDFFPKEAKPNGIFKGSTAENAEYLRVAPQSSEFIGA

Row | IC50 (EGFR) [nM] | IC50 (TEC) [nM] | IC50 (ITK) [nM] | IC50 (BTK-WT) [nM] | IC50 (TXK) [nM] | Structure (SMILES)
1 | ≤ 10 | ≤ 10 | ≤ 10 | ≤ 10 | ≤ 10 | C=CC(=O)N1CCC[C@@H](Nc2nnc(C(N)=O)c(Nc3ccc(S(C)(=O)=O)cc3)n2)C1 [Example C-59, (R)-3-(1-acryloylpiperidin-3-ylamino)-5-(4-(methylsulfonyl)phenyl-amino)-1,2,4-triazine-6-carboxamide]
2 |  | ≤ 10 | ≤ 10 | ≤ 10 | ≤ 10 | C=CC(=O)N1CCC[C@@H](Nc2nnc(C(N)=O)c(Nc3ccc(C4CCN(C5CCCC5)CC4)cc3)n2)C1 [Example C-60, (R)-3-(1-acryloylpiperidin-3-ylamino)-5-(4-(1-cyclopentylpiperidin-4-yl)phenylamino)-1,2,4-triazine-6-carboxamide]
3 |  | ≤ 10 | ≤ 10 | ≤ 10 | ≤ 10 | C=CC(=O)N1CCC[C@@H](Nc2nnc(C(N)=O)c(Nc3ccc(C(C)(C)C#N)cc3)n2)C1 [Example C-61, (R)-3-(1-acryloylpiperidin-3-ylamino)-5-(4-(2-cyanopropan-2-yl)phenylamino)-1,2,4-triazine-6-carboxamide]
4 |  | ≤ 10 | ≤ 10 | ≤ 10 | ≤ 10 | C=CC(=O)N1CCC[C@@H](Nc2nnc(C(N)=O)c(Nc3ccc4ncsc4c3)n2)C1 [Example C-63, (R)-3-(1-acryloylpiperidin-3-ylamino)-5-(benzo[d]thiazol-6-ylamino)-1,2,4-triazine-6-carboxamide]
5 |  | ≤ 10 | ≤ 10 | ≤ 10 | ≤ 10 | C=CC(=O)N1CCC[C@@H](Nc2nnc(C(N)=O)c(Nc3ccc4ncccc4c3)n2)C1 [Example C-82, (R)-3-(1-acryloylpiperidin-3-ylamino)-5-(quinolin-6-ylamino)-1,2,4-triazine-6-carboxamide]
6 |  | ≤ 10 | 10 to 100 | ≤ 10 | ≤ 10 | C=CC(=O)N1CCC[C@@H](Nc2nnc(C(N)=O)c(Nc3cccc(-c4ncco4)c3)n2)C1 [Example C-79, (R)-3-(1-acryloylpiperidin-3-ylamino)-5-(3-(oxazol-2-yl)phenylamino)-1,2,4-triazine-6-carboxamide]
7 |  | ≤ 10 | 100 to 1000 | ≤ 10 | ≤ 10 | C=CC(=O)N1CCC[C@@H](Nc2nnc(C(N)=O)c(Nc3cncc(F)c3)n2)C1 [Example C-69, (R)-3-(1-acryloylpiperidin-3-ylamino)-5-(5-fluoropyridin-3-ylamino)-1,2,4-triazine-6-carboxamide]
8 | 10 to 100 | ≤ 10 | ≤ 10 | ≤ 10 | ≤ 10 | C=CC(=O)N1CCC[C@@H](Nc2nnc(C(N)=O)c(Nc3ccc(N4CCOCC4=O)cc3)n2)C1 [Example C-76, (R)-3-(1-acryloylpiperidin-3-ylamino)-5-(4-(3-oxomorpholino)phenyl-amino)-1,2,4-triazine-6-carboxamide]
9 | ≤ 10 | ≤ 10 | ≤ 10 | ≤ 10 | ≤ 10 | C=CC(=O)N1CCC[C@@H](Nc2nnc(C(N)=O)c(Nc3ccc(C4(C#N)CCCC4)cc3)n2)C1 [Example C-58, (R)-3-(1-acryloylpiperidin-3-ylamino)-5-(4-(1-cyanocyclopentyl)phenylamino)-1,2,4-triazine-6-carboxamide]
10 | 10 to 100 | ≤ 10 | 10 to 100 | ≤ 10 | ≤ 10 | C=CC(=O)N1CCC[C@@H](Nc2nnc(C(N)=O)c(Nc3cccc(-n4nccn4)c3)n2)C1 [Example C-75, (R)-5-(3-(2H-1,2,3-triazol-2-yl)phenylamino)-3-(1-acryloylpiperidin-3-ylamino)-1,2,4-triazine-6-carboxamide]
11 |  | ≤ 10 | 10 to 100 | ≤ 10 | ≤ 10 | C=CC(=O)N1CCC[C@@H](Nc2nnc(C(N)=O)c(Nc3cnc4ccccc4c3)n2)C1 [Example C-70, (R)-3-(1-acryloylpiperidin-3-ylamino)-5-(quinolin-3-ylamino)-1,2,4-triazine-6-carboxamide]
12 |  | ≤ 10 | 10 to 100 | ≤ 10 | 10 to 100 | C=CC(=O)N1CCC[C@@H](Nc2nnc(C(N)=O)c(Nc3ccc(CN(C(=O)OCc4ccccc4)[C@@H](C)C(C)(C)C)cc3)n2)C1 [Example C-72, benzyl 4-(3-((R)-1-acryloylpiperidin-3-ylamino)-6-carbamoyl-1,2,4-triazin-5-ylamino)benzyl((S)-3,3-dimethylbutan-2-yl)carbamate]
13 | ≤ 10 | ≤ 10 | 10 to 100 | ≤ 10 | ≤ 10 | C=CC(=O)N1CCC[C@@H](Nc2nnc(C(N)=O)c(Nc3ccc(-c4nn[nH]n4)cc3)n2)C1 [Example C-78, (R)-5-(4-(2H-tetrazol-5-yl)phenylamino)-3-(1-acryloylpiperidin-3-ylamino)-1,2,4-triazine-6-carboxamide]
14 | ≤ 10 | ≤ 10 | 10 to 100 | ≤ 10 | ≤ 10 | C=CC(=O)N1CCC[C@@H](Nc2nnc(C(N)=O)c(Nc3ccc(-c4nccs4)cc3)n2)C1 [Example C-77, (R)-3-(1-acryloylpiperidin-3-ylamino)-5-(4-(thiazol-2-yl)phenylamino)-1,2,4-triazine-6-carboxamide]
15 | ≤ 10 | ≤ 10 | 10 to 100 | ≤ 10 | ≤ 10 | C=CC(=O)N1CCC[C@@H](Nc2nnc(C(N)=O)c(Nc3ccc(-c4ncco4)cc3)n2)C1 [Example C-51, (R)-3-(1-acryloylpiperidin-3-ylamino)-5-(4-(oxazol-2-yl)phenylamino)-1,2,4-triazine-6-carboxamide]
16 |  | ≤ 10 | 10 to 100 | ≤ 10 | ≤ 10 | C=CC(=O)N1CCC[C@@H](Nc2nnc(C(N)=O)c(Nc3ccc(C(C)C)c(C)c3)n2)C1 [Example C-53, (R)-3-(1-acryloylpiperidin-3-ylamino)-5-(4-isopropyl-3-methylphenylamino)-1,2,4-triazine-6-carboxamide]
17 | 10 to 100 | ≤ 10 | 10 to 100 | ≤ 10 | ≤ 10 | C=CC(=O)N1CCC[C@@H](Nc2nnc(C(N)=O)c(Nc3cccc(-c4ncccn4)c3)n2)C1 [Example C-71, (R)-3-(1-acryloylpiperidin-3-ylamino)-5-(3-(pyrimidin-2-yl)phenylamino)-1,2,4-triazine-6-carboxamide]
18 |  | ≤ 10 | ≤ 10 | ≤ 10 | ≤ 10 | C=CC(=O)N1CCC[C@@H](Nc2nnc(C(N)=O)c(Nc3ccc(Cn4cncn4)cc3)n2)C1 [Example C-64, (R)-5-(4-((1H-1,2,4-triazol-1-yl)methyl)phenyl-amino)-3-(1-acryloylpiperidin-3-ylamino)-1,2,4-triazine-6-carboxamide]
